# The NIST ThermoML archive (doi:10.1021/je8005979)
# ± gives the expanded uncertainty stated by the source.
# Details: Crystal; visual observation
smiles,measurement,value
CCCCCCCCCCCCCCCC(=O)O [hexadecanoic acid],Normal melting temperature,62.7 ± 0.4 °C
